Test results as given in publication PMC8847695 (Frontiers in Chemistry, 2022).

How the values were obtained:
Format in all cases: binding
Conditions in all cases: 1 = hit, 0 = no hit
[1] = molecular target: T1, DOT1L (1-416) (Homo sapiens, UniProt Q8TEK3); assay: STD-NMR fragment screening, DOT1L
T1 construct: made in house; host or cells: E. coli BL21 (DE3) pLysS
How it was run: (§1)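 Saturation-transfer difference NMR was run at 25°C and 700 MHz with 20 µM protein, two fragments at 1 mM each, and 10% DMSO-d6. On-resonance saturation was at 0.5–0.6 ppm and off-resonance at 40 ppm, with a 3 s Gaussian-pulse train. A hit required a difference-spectrum peak at least three times the local noise.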

[2] = molecular target: T2, IDO1 (1-435) (Homo sapiens, UniProt P14902); assay: STD-NMR fragment screening, IDO1
T2 construct: His-tag of pET15b with TEV site (thrombin site replaced) (cleaved yes); made in house; host or cells: E. coli Rosetta 2 (DE3) pLysS
How it was run: as §1

[3] = molecular target: T3, CAMK1G (1-320) (Homo sapiens, UniProt Q96NX5); assay: STD-NMR fragment screening, CAMK1G
T3 construct: made in house; host or cells: E. coli BL21 (DE3) pLysS
How it was run: as §1

[4] = molecular target: AAK1 (121-471) (Homo sapiens, UniProt Q2M2I8); assay: STD-NMR fragment screening, AAK1
How it was run: as §1

AAK1 (121-471), sequence (Q2M2I8 46-315 limits assumed): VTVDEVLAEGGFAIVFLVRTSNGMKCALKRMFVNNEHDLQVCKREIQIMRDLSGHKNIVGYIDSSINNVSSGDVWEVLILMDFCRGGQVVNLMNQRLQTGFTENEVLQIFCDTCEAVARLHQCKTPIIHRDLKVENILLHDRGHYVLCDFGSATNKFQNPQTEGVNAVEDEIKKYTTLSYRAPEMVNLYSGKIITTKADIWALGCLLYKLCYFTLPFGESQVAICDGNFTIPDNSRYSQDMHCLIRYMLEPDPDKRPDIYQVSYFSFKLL
T1 sequence (Q8TEK3 1-416): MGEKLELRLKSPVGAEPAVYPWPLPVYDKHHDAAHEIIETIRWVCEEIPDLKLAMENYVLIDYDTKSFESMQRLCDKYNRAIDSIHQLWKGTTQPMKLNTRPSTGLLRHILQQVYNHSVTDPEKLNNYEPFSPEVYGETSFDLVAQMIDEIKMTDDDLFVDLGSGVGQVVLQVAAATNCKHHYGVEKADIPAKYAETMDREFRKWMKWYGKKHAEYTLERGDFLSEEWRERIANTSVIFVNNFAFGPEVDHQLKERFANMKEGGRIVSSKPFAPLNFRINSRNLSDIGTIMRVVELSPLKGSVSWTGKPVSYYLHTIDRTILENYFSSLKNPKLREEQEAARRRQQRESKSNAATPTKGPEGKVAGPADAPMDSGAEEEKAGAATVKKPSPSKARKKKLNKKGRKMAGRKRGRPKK
T2 sequence (P14902 whole entry, the tested form may be a part): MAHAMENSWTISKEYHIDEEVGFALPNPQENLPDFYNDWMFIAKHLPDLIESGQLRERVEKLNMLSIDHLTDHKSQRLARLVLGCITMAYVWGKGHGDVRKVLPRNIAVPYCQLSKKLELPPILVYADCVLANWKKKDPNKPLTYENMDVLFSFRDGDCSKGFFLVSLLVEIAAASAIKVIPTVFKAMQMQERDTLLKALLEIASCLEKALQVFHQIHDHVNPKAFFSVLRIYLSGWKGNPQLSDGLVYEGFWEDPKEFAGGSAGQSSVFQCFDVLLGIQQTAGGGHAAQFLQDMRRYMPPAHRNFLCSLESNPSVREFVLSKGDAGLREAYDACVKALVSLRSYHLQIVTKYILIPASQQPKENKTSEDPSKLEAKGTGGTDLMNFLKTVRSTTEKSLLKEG
T3 sequence (Q96NX5 1-320): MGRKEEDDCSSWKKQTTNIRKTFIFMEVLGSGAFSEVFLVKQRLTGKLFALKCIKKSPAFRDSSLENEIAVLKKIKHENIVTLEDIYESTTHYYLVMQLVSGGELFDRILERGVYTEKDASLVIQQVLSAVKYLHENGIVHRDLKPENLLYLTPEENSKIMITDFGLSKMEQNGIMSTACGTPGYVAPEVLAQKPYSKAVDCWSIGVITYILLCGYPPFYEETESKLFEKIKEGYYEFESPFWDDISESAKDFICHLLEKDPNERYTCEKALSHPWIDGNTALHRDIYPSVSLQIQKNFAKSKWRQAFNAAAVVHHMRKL

| SMILES | DOT1L (STD-NMR hit flag) [1] | IDO1 (STD-NMR hit flag) [2] | CAMK1G (STD-NMR hit flag) [3] | AAK1 (STD-NMR hit flag) [4] |
| --- | --- | --- | --- | --- |
| NCc1cc(Cl)c2c(c1)OCCCO2 [Fragment B02291242] | 0 | 0 | 0 | 0 |
| Cc1nn(CC(=O)O)c(C)c1Cl [Fragment B02291243] | 0 | 1 | 1 | 0 |
| Nc1cc(Cl)cc([N+](=O)[O-])c1O [Fragment B02291244] | 0 | 0 | 0 | 0 |
| O=C(O)c1ccc(Br)cn1 [Fragment B02291245] | 0 | 0 | 0 | 0 |
| COc1cc(OC)nc(Cl)n1 [Fragment B02291246] | 0 | 1 | 0 | 1 |
| O=C(O)C(O)c1ccccc1Cl (stereo not shown) [Fragment B02291247] | 0 | 0 | 0 | 0 |
| O=c1[nH]cc(Br)c(=O)[nH]1 [Fragment B02291248] | 0 | 0 | 1 | 1 |
| O=C(O)Cc1ccc(Cl)nc1 [Fragment B02291249] | 0 | 0 | 0 | 0 |
| Cc1nn(CCO)c(N)c1I [Fragment B02291250] | 0 | 0 | 1 | 0 |
| O=C(O)c1cnc(Cl)cn1 [Fragment B02291251] | 0 | 0 | 0 | 0 |
| Cn1nc(Br)c(C(=O)NCC(=O)O)c1N [Fragment B02291252] | 0 | 0 | 0 | 1 |
| O=C1CCS(=O)(=O)c2ccc(Cl)cc21 [Fragment B02291253] | 0 | 0 | 1 | 0 |
| Clc1ncnc2[nH]ccc12 [Fragment B02291254] | 0 | 1 | 1 | 1 |
| O=C1Nc2cccc(Cl)c2C1=O [Fragment B02291255] | 0 | 0 | 0 | 0 |
| Clc1cncc(-n2cccn2)n1 [Fragment B02291256] | 0 | 0 | 1 | 1 |
| N#Cc1ccc(O)c(Cl)c1 [Fragment B02291257] | 0 | 0 | 0 | 1 |
| O=C(O)c1cccnc1Cl [Fragment B02291258] | 0 | 0 | 0 | 0 |
| Nc1ccc(C(=O)O)c(Cl)c1 [Fragment B02291259] | 0 | 0 | 0 | 0 |
| Nc1ccc(Cl)c(C(=O)O)c1 [Fragment B02291260] | 0 | 0 | 0 | 0 |
